ChEMBL document CHEMBL1140569, “Synthesis and structure-activity relationships of thieno[2,3-b]pyrroles as antagonists of the GnRH receptor” (Bioorg Med Chem Lett, 2007)
≈ marks a conversion by molar mass, not a printed value. Calls of active or inactive are those of the source. The rule behind the calls is not given here.

How the values were obtained:
[1] = Solubility in 0.1 M phosphate buffer at pH 7.4
Cytochrome P450 3A4 = Cytochrome P450 3A4 (Homo sapiens, UniProt P08684); experiment: Inhibition of human CYP3A4
Chain of Cytochrome P450 3A4 (P08684 whole entry): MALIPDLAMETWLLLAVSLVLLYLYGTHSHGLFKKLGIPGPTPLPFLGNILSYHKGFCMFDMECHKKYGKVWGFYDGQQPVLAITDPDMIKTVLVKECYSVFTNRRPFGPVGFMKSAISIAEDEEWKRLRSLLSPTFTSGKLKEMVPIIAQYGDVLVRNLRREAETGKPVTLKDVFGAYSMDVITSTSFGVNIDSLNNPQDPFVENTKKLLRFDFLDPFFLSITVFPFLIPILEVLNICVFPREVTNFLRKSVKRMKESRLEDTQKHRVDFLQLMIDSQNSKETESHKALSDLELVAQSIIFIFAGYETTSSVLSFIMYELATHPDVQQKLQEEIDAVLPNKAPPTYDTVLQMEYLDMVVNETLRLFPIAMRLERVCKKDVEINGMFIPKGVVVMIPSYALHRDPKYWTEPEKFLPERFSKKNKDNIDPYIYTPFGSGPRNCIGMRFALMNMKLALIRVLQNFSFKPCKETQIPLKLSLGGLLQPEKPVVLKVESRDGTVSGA

[2] = AUC in rat at 10 mg/kg, po; type: ADME, organism-based; parameters: dose 10 mg/kg, route oral; conditions: plasma
[3] = Plasma clearance in rat; type: ADME, organism-based
[4] = AUC in rat at 1 mg/kg, po; type: ADME, organism-based; parameters: dose 1 mg/kg, route oral; conditions: plasma
Rattus norvegicus = experiment: Inhibition of LH production in castrated AP Wistar Han rat model at 75 mg/kg, po after 12 hrs by radioimmunoassay; type: functional, organism-based; parameters: dose 75 mg/kg
[5] = Oral bioavailability in rat; type: ADME, organism-based; conditions: in vivo

Q: For `Cc1cc(C)cc(-c2[nH]c3sc(C(C)(C)C(=O)N4C5CCC4CC5)cc3c2CN2CCN(CC(=O)N3CCCC3)CC2)c1`, which solubility [1] is on record?
A: 2 µM (≈ 1.2 µg/mL)

Q: What does the source list for `Cc1cc(C)cc(-c2[nH]c3sc(C(C)(C)C(=O)N4C5CCC4CC5)cc3c2CCN2CCN(CC(O)CN3CCNCC3)CC2)c1` (stereo not drawn)?
A: solubility [1]: 425 µM (≈ 275 µg/mL); IC50 (Cytochrome P450 3A4): > 10 µM

Q: Which AUC [2] does the source give for `Cc1cc(C)cc(-c2[nH]c3sc(C(C)(C)C(=O)N4C5CCC4CC5)cc3c2CCN2CCC(C(=O)N3CCCC(O)C3)CC2)c1` (stereo not drawn) here?
A: 39.3 µM·h

Q: And the clearance [3]?
A: 1.3 mL/min/kg

Q: With `Cc1cc(C)cc(-c2[nH]c3sc(C(C)(C)C(=O)N4C5CCC4CC5)cc3c2CCN2CCC(CC(=O)N3CCOCC3)CC2)c1` as the molecule, how does the AUC [4] read?
A: 0.041 µM·h

Q: What does the source list for `CC(=O)N1CCN(CC(O)CN2CCN(CCc3c(-c4cc(C)cc(C)c4)[nH]c4sc(C(C)(C)C(=O)N5C6CCC5CC6)cc34)CC2)CC1` (stereo not drawn)?
A: solubility [1]: 236 µM (≈ 163 µg/mL); IC50 (Cytochrome P450 3A4): 6 µM

Q: With `Cc1cc(C)cc(-c2[nH]c3sc(C(C)(C)C(=O)N4C5CCC4CC5)cc3c2CCN2CCC(C(=O)N3CCOCC3)CC2)c1` as the molecule, how does the AUC [2] read?
A: 27.1 µM·h

Q: What about the clearance [3] of the same molecule?
A: 4 mL/min/kg

Q: What about the Activity (Rattus norvegicus) of the same molecule?
A: Active

Q: With `Cc1cc(C)cc(-c2[nH]c3sc(C(C)(C)C(=O)N4C5CCC4CC5)cc3c2C(=O)CN2CCN(CC(=O)N3CCCC3)CC2)c1` as the molecule, how does the solubility [1] read?
A: 947 µM (≈ 596 µg/mL)

Q: Which solubility [1] does the source give for `Cc1cc(C)cc(-c2[nH]c3sc(C(C)(C)C(=O)N4C5CCC4CC5)cc3c2CCN2CCN(CC(=O)N(C)C)CC2)c1` here?
A: 104 µM (≈ 61.3 µg/mL)

Q: For `CC(=O)NC1CCN(C(=O)CN2CCN(CCc3c(-c4cc(C)cc(C)c4)[nH]c4sc(C(C)(C)C(=O)N5C6CCC5CC6)cc34)CC2)C1` (stereo not drawn), which solubility [1] is on record?
A: 107 µM (≈ 72 µg/mL)

Q: For `Cc1cc(C)cc(-c2[nH]c3sc(C(C)(C)C(=O)N4C5CCC4CC5)cc3c2C(=O)CN2CCC(C(=O)N3CCOCC3)CC2)c1`, which AUC [4] is on record?
A: 0.36 µM·h

Q: With `Cc1cc(C)cc(-c2[nH]c3sc(C(C)(C)C(=O)N4C5CCC4CC5)cc3c2[C@H](C)CN/C(=N/C(=O)OC(C)C)N2CCC(c3ccncc3)CC2)c1` as the molecule, how does the solubility [1] read?
A: 1.4 µM (≈ 1.01 µg/mL)

Q: With `Cc1cc(C)cc(-c2[nH]c3sc(C(C)(C)C(=O)N4C5CCC4CC5)cc3c2[C@H](C)CNC(=O)N2CCC(c3ccncc3)CC2)c1` as the molecule, how does the solubility [1] read?
A: 0.6 µM (≈ 0.383 µg/mL)

Q: With `Cc1cc(C)cc(-c2[nH]c3sc(C(C)(C)C(=O)N4C5CCC4CC5)cc3c2CCN2CCN(CC(=O)N3CCOCC3)CC2)c1` as the molecule, how does the clearance [3] read?
A: 153 mL/min/kg

Q: What about the bioavailability [5] of the same molecule?
A: 4%

Q: Which AUC [4] does the source give for `CCN(CC)CCOC1CCN(CCc2c(-c3cc(C)cc(C)c3)[nH]c3sc(C(C)(C)C(=O)N4C5CCC4CC5)cc23)CC1` here?
A: 0.002 µM·h

Q: Which AUC [2] does the source give for `Cc1cc(C)cc(-c2[nH]c3sc(C(C)(C)C(=O)N4C5CCC4CC5)cc3c2CCN2CCC(C(=O)N3CCOCC3)C(C)C2)c1` (stereo not drawn) here?
A: 0.254 µM·h

Q: With `Cc1cc(C)cc(-c2[nH]c3sc(C(C)(C)C(=O)N4C5CCC4CC5)cc3c2CCN2CCC(CNC(=O)N3CCOCC3)CC2)c1` as the molecule, how does the AUC [4] read?
A: 0.018 µM·h

Q: With `COC1CCN(C(=O)C2CCN(CCc3c(-c4cc(C)cc(C)c4)[nH]c4sc(C(C)(C)C(=O)N5C6CCC5CC6)cc34)CC2)C1` (stereo not drawn) as the molecule, how does the AUC [2] read?
A: 190 µM·h

Q: And the clearance [3]?
A: 0.8 mL/min/kg

Q: And the bioavailability [5]?
A: 38%

Q: For `Cc1cc(C)cc(-c2[nH]c3sc(C(C)(C)C(=O)N4CCCC4)cc3c2[C@H](C)CNC(=O)N2CCC(c3ccccc3)C2)c1` (stereo partly drawn), which solubility [1] is on record?
A: 56 µM (≈ 33.4 µg/mL)

Q: For `Cc1cc(C)cc(-c2[nH]c3sc(C(C)(C)C(=O)N4C5CCC4CC5)cc3c2CCN2CCC(N3CCOCC3)CC2)c1`, which AUC [4] is on record?
A: 0.006 µM·h

Q: Which solubility [1] does the source give for `COC(=O)/N=C(/NC[C@@H](C)c1c(-c2cc(C)cc(C)c2)[nH]c2sc(C(C)(C)C(=O)N3C4CCC3CC4)cc12)N1CCC(c2ccncc2)C1` (stereo partly drawn) here?
A: 4.6 µM (≈ 3.13 µg/mL)

Q: With `Cc1cc(C)cc(-c2[nH]c3sc(C(C)(C)C(=O)N4C5CCC4CC5)cc3c2[C@H](C)CNC(=NC(=O)OC(C)C)N2CCC(c3ccncc3)C2)c1` (stereo partly drawn) as the molecule, how does the solubility [1] read?
A: 0.8 µM (≈ 0.567 µg/mL)

Q: With `COC1CCN(C(=O)C2CCN(CCc3c(-c4cc(C)cc(C)c4)[nH]c4sc(C(C)(C)C(=O)N5C6CCC5CC6)cc34)CC2)CC1` as the molecule, how does the AUC [2] read?
A: 358 µM·h

Q: What about the clearance [3] of the same molecule?
A: 0.1 mL/min/kg

Q: And the bioavailability [5]?
A: 35%

Q: Which AUC [2] does the source give for `Cc1cc(C)cc(-c2[nH]c3sc(C(C)(C)C(=O)N4C5CCC4CC5)cc3c2CCN2CCC(OCC(=O)N3CCOCC3)CC2)c1` here?
A: 0.526 µM·h
